Among the data in US8703770B2, “Pyridazine carboxamide orexin receptor antagonists” (Merck Sharp & Dohme Corp., priority 2008, dated 2014) are Ki values, retold here.

For this experiment, the target named is OX2R (Homo sapiens (Human), UniProt O43614). The experiment is described as follows: radioligand binding assay, membranes from CHO cells expressing OX2 receptor. Particulars: CHO cell membranes.
Chain of OX2R (O43614 whole entry): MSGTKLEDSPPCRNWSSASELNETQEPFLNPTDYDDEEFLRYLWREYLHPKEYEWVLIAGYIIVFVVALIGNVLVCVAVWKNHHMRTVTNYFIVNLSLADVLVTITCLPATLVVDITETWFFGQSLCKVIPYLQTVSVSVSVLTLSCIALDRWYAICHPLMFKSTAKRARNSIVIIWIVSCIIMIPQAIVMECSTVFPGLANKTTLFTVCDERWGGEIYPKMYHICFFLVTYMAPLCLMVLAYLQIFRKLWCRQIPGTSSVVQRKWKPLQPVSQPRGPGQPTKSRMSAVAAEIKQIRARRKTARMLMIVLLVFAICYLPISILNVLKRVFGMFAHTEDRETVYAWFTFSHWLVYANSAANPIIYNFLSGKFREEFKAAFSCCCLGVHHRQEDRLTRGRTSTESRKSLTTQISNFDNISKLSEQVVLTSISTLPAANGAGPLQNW

Take `COc1ccc(CNC(=O)c2cc(-c3cc(C)cc(C)c3)nnc2-c2cnn(C)c2)cc1OC` [Compound 1-5, N-(3,4-dimethoxybenzyl)-6-(3,5-dimethylphenyl)-3-(1-methyl-1H-pyrazol-4-yl)pyridazine-4-carboxamide]: the Ki came to 3.3 nM.

For the molecule `COc1ccc(CNC(=O)c2cc(-c3cc(C)cc(Cl)c3)nnc2N2CCOCC2)cc1OC` [Compound 2-2, 6-(3-chloro-5-methylphenyl)-N-(3,4-dimethoxybenzyl)-3-morpholin-4-ylpyridazine-4-carboxamide], the inhibition constant (Ki) was 0.96 nM.
